Test results: patent US20250188092A1, “RIFAMYCIN ANALOGS” (THE REGENTS OF THE UNIVERSITY OF MICHIGAN, priority 2021, published 2025)
Values after ≈ are worked out from the molar mass of the structure shown. Read-outs that look alike come from different tables or passages of the source.

Assays:
[1] = tested on: non-replicating cultures of M. tuberculosis H37Rv transformed with lux ABCDE; test: microbe, parasite or virus in culture; format: cell-based, Mycobacterium tuberculosis; details: for MIC / MIC90: Mycobacterium tuberculosis, H37RV, ≥90% reduction in luminescence, read-out: MIC90 LORA; for MIC90 LORA/MABA: ratio of LORA MIC90 to MABA MIC90
[2] = tested on: M. tuberculosis transformed with luxABCDE; test: microbe, parasite or virus in culture; format: cell-based, Mycobacterium tuberculosis; details: for MBC / MIC90: Mycobacterium tuberculosis, 168 h
[3] = […], ≥99% reduction in luminescence, read-out: MBC99 Day 7 (Lux Assay) MBC
[4] = day 7 of time-kill study, read-out: MBC99

| SMILES | MIC90 LORA Rel to RMP [1] | MIC [1] [µM] | MIC90 LORA/MABA [1] | MBC99 Day 7 (Lux Assay) MBC Rel to RMP [2] | MBC [2, 3] [µM] | MIC90 [1] [µM] | MIC90 ([2]; day 7 of time-kill study) [µM] | MBC [2, 4] [µM] |
| --- | --- | --- | --- | --- | --- | --- | --- | --- |
| CO[C@H]1/C=C/O[C@@]2(C)Oc3c(C)c(O)c4c(=O)c(c5oc6cccc(OCCCCN7CCN(C(=O)CN8CCOCC8)CC7)c6nc-5c4c3C2=O)NC(=O)/C(C)=C\C=C\[C@H](C)[C@H](O)[C@@H](C)[C@@H](O)[C@@H](C)[C@H](OC(C)=O)[C@@H]1C [Compound 5e, (7S,9E,11S,12R,13S,14R,15R,16R,17S,18S,19E,21Z)-2,15,17-Trihydroxy-11-methoxy-3,7,12,14,16,18,22-heptamethyl-32-(4-{4-[2-(morpholin-4-yl)acetyl]piperazin-1-yl}butoxy)-6,23,37-trioxo-8,27,38-trioxa-24,34-diazahexacyclo[23.11.1.1^4,7.0^5,36.0^26,35.0^28,33]octatriaconta-1(36)2,4,9,19,21,25,28(33)29,31,34-undecaen-13-yl acetate] | 0.27 | 0.047 | 0.57 | 0.09 | 0.04 |  |  |  |
| CCC(=O)N1CCN(Cc2cccc(COc3cccc4oc5c6c(=O)c7c(O)c(C)c8c(c7c-5nc34)C(=O)[C@@](C)(O/C=C/[C@H](OC)[C@@H](C)[C@@H](OC(C)=O)[C@H](C)[C@H](O)[C@H](C)[C@@H](O)[C@@H](C)/C=C/C=C(/C)C(=O)N6)O8)c2)CC1 [Compound 11d, (7S,9E,11S,12R,13S,14R,15R,16R,17S,1S,19E,21Z)-2,15,17-Trihydroxy-11-methoxy-3,7,12,14,16,18,22-heptamethyl-6,23,37-trioxo-32-{(3-[(4-propanoylpiperazin-1-yl)methyl]phenyl}methoxy)-8,27,38-trioxa-24,34-diazahexacyclo[23.11.1.1^4,7.0^5,36.0^26,35.0^28,33]octatriaconta-1(36)2,4,9,19,21,25,28,30,32,34-undecaen-13-yl acetate] |  |  |  | 0.08 | 0.058 | < 0.1 |  |  |
| CO[C@H]1/C=C/O[C@@]2(C)Oc3c(C)c(O)c4c(=O)c(c5oc6cccc(OCc7cccc(CN8CCN(C(=O)CN9CCOCC9)CC8)c7)c6nc-5c4c3C2=O)NC(=O)/C(C)=C\C=C\[C@H](C)[C@H](O)[C@@H](C)[C@@H](O)[C@@H](C)[C@H](OC(C)=O)[C@@H]1C [Compound 11f, (7S,9E,11S,12R,13S,14R,15R,16R,17S,1S,19E,21Z)-2,15,17-Trihydroxy-11-methoxy-3,7,12,14,16,18,22-heptamethyl-32-{[3-({4-[2-(morpholin-4-yl)acetyl]piperazin-1-yl}methyl)phenyl]methoxy}-6,23,37-trioxo-8,27,38-trioxa-24,34-diazahexacyclo[23.11.1.1^4,7.0^5,36.0^26,35.0^28,33]octatriaconta-1(36)2,4,9,19,21,25,28,30,32,34-undecaen-13-yl acetate] | 0.39 |  | 15 | 0.11 | 0.084 | 0.37 |  |  |
| CO[C@H]1/C=C/O[C@@]2(C)Oc3c(C)c(O)c4c(=O)c(c5oc6cccc(OCc7cccc(CN8CCN(C(=O)Cc9ccccc9)CC8)c7)c6nc-5c4c3C2=O)NC(=O)/C(C)=C\C=C\[C@H](C)[C@H](O)[C@@H](C)[C@@H](O)[C@@H](C)[C@H](OC(C)=O)[C@@H]1C [Compound 11g, (7S,9E,11S,12R,13S,14R,15R,16R,17S,18S,19E,21Z)-2,15,17-Trihydroxy-11-methoxy-3,7,12,14,16,18,22-heptamethyl-6,23,37-trioxo-32-[(3-{[4-(2-phenylacetyl)-piperazin-1-yl]methyl}phenyl)methoxy]-8,27,38-trioxa-24,34-diazahexacyclo[23.11.1.1^4,7.0^5,36.0^26,35.0^28,33]octatriaconta-1(36)2,4,9,19,21,25,28,30,32,34-undecaen-13-yl acetate] | 1.1 |  | 12 | 0.06 | 0.044 | 0.131 |  |  |
| CO[C@H]1/C=C/O[C@@]2(C)Oc3c(C)c(O)c4c(=O)c(c5oc6cc(N7CCN(CC(C)C)CC7)cc(OCc7cccc(CN8CCN(C(=O)Cn9ccnc9)CC8)c7)c6nc-5c4c3C2=O)NC(=O)/C(C)=C\C=C\[C@H](C)[C@H](O)[C@@H](C)[C@@H](O)[C@@H](C)[C@H](OC(C)=O)[C@@H]1C [Compound 12c, (7S,9E,11S,12R,13S,14R,15R,16R,17S,18S,19E,21Z)-2,15,17-Trihydroxy-32-{[3-({4-[2-(1H-imidazol-1-yl)acetyl]piperazin-1-yl}methyl)phenyl]methoxy}-11-methoxy-3,7,12,14,16,18,22-heptamethyl-30-[4-(2-methylpropyl)piperazin-1-yl]-6,23,37-trioxo-8,27,38-trioxa-24,34-diazahexacyclo[23.11.1.1^4,7.0^5,36.0^26,35.0^28,33]octatriaconta-1(36)2,4,9,19,21,25,28,30,32,34-undecaen-13-yl acetate] | 0.11 | < 0.016 |  | 0.08 | 0.037 |  |  |  |
| CO[C@H]1/C=C/O[C@@]2(C)Oc3c(C)c(O)c4c(=O)c(c5oc6cccc(OCc7ccc(CN8CCOCC8)cc7)c6nc-5c4c3C2=O)NC(=O)/C(C)=C\C=C\[C@H](C)[C@H](O)[C@@H](C)[C@@H](O)[C@@H](C)[C@H](OC(C)=O)[C@@H]1C [Compound 16d, (7S,9E,11S,12R,13S,14R,15R,16R,17S,18S,19E,21Z)-2,15,17-Trihydroxy-11-methoxy-3,7,12,14,16,18,22-heptamethyl-32-({4-[(morpholin-4-yl)methyl]phenyl}methoxy)-6,23,37-trioxo-8,27,38-trioxa-24,34-diazahexacyclo[23.11.1.1^4,7.0^5,36.0^26,35.0^28,33]octatriaconta-1(36)2,4,9,19,21,25,28,30,32,34-undecaen-13-yl acetate] | 0.62 |  | 8.4 | 0.20 | 0.092 | 0.031 |  |  |
| CO[C@H]1/C=C/O[C@@]2(C)Oc3c(C)c(O)c4c(=O)c(c5oc6cc(N7CCN(CC(C)C)CC7)cc(N7CCN(CC(C)C)CC7)c6nc-5c4c3C2=O)NC(=O)/C(C)=C\C=C\[C@H](C)[C@H](O)[C@@H](C)[C@@H](O)[C@@H](C)[C@H](OC(C)=O)[C@@H]1C [Compound 17u, 7S,9E,11S,12R,13S,14R,15R,16R,17S,18S,19E,21Z)-2,15,17-trihydroxy-11-methoxy-3,7,12,14,16,18,22-heptamethyl-30,32-bis[4-(2-methylpropyl)piperazin-1-yl]-6,23,37-trioxo-8,27,38-trioxa-24,34-diazahexacyclo[23.11.1.1^4,7.0^5,36.0^26,35.0^28,33]octatriaconta-1,3,5(36)9,19,21,25,28,30,32,34-undecaen-13-yl acetate] |  |  |  | 0.05 | 0.025 |  |  |  |
| NNC(=O)c1ccncc1 [Isoniazid, isoniazid, reference compound] |  |  |  |  |  |  | 0.409 (≈ 0.0561 µg/mL) | 3.59 (≈ 0.492 µg/mL) |
| O=[N+]([O-])c1cn2c(n1)OC[C@@H](OCc1ccc(OC(F)(F)F)cc1)C2 [Pretomanid, pretomanid, reference compound] |  |  |  |  |  |  | 0.47 (≈ 0.169 µg/mL) | 0.597 (≈ 0.214 µg/mL) |
